Test results reported in ChEMBL document CHEMBL5625233, “Exploring positions 6 and 7 of a quinazoline-based scaffold leads to changes in selectivity and potency towards RIPK2/3 kinases” (Eur J Med Chem, 2023).
Active and inactive are the calls of the source. The calls are words filed in the database; no cut-off is given here.

Experiments:
[1] = target: T1, Receptor-interacting serine/threonine-protein kinase 2 (Homo sapiens, UniProt O43353); assay: Inhibition of N-terminal polyHis-tagged human RIPK2 (8 to 310 residues) expressed in Sf9 cells using MBP as substrate preincubated for 15 mins followed by ATP addition measured after 90 mins by ADP-Glo assay
[2] = target: T2, Receptor-interacting serine/threonine-protein kinase 3 (Homo sapiens, UniProt Q9Y572); assay: Inhibition of N-terminal polyHis-tagged human RIPK3 (1 to 307 residues) expressed in Sf9 cells using MBP as substrate preincubated for 15 mins followed by ATP addition measured after 90 mins by ADP-Glo assay
Target sequence in this assay (Q9Y572 whole entry, the tested form may be a part): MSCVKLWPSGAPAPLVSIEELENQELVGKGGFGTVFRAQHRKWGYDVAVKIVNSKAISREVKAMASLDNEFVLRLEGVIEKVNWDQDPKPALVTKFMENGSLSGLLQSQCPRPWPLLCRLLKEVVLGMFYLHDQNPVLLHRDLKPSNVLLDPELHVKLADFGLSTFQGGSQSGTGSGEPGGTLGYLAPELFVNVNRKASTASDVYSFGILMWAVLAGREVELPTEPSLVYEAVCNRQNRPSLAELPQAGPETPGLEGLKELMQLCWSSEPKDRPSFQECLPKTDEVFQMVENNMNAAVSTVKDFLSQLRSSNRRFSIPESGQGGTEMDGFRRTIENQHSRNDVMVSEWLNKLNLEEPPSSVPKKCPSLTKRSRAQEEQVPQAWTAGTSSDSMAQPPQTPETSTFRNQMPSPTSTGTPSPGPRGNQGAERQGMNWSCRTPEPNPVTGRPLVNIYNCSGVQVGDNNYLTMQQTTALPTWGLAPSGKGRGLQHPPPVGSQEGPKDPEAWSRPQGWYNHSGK

[3] = target: T3, Receptor-interacting serine/threonine-protein kinase 1 (Homo sapiens, UniProt Q13546); assay: Inhibition of N-terminal polyHis-tagged human RIPK1 (1 to 321 residues) expressed in Sf9 cells using MBP as substrate preincubated for 15 mins followed by ATP addition measured after 90 mins by ADP-Glo assay
T3 sequence (Q13546 whole entry): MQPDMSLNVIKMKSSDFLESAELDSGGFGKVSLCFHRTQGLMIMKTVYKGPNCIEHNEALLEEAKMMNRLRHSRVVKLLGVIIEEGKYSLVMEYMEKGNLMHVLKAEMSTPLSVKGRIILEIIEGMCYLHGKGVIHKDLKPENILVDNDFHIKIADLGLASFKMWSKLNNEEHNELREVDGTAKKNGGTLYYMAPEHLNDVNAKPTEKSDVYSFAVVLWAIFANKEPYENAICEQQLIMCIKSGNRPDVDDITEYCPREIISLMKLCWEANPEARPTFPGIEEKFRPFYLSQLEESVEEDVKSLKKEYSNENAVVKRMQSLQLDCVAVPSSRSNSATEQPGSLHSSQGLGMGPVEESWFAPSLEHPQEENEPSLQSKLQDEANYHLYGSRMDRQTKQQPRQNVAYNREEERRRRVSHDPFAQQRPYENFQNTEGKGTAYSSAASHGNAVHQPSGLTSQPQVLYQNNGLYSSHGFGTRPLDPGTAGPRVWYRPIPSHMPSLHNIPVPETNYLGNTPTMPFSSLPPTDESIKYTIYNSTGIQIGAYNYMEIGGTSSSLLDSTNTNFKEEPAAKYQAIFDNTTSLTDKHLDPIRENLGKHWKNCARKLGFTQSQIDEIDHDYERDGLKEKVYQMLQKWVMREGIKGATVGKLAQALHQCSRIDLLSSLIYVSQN

[4] = target: T4, Receptor-interacting serine/threonine-protein kinase 4 (Homo sapiens, UniProt P57078); assay: Inhibition of N-terminal polyHis-tagged human RIPK4 (1 to 321 residues) expressed in Sf9 cells using MBP as substrate preincubated for 15 mins followed by ATP addition measured after 90 mins by ADP-Glo assay
T4 sequence (P57078 whole entry): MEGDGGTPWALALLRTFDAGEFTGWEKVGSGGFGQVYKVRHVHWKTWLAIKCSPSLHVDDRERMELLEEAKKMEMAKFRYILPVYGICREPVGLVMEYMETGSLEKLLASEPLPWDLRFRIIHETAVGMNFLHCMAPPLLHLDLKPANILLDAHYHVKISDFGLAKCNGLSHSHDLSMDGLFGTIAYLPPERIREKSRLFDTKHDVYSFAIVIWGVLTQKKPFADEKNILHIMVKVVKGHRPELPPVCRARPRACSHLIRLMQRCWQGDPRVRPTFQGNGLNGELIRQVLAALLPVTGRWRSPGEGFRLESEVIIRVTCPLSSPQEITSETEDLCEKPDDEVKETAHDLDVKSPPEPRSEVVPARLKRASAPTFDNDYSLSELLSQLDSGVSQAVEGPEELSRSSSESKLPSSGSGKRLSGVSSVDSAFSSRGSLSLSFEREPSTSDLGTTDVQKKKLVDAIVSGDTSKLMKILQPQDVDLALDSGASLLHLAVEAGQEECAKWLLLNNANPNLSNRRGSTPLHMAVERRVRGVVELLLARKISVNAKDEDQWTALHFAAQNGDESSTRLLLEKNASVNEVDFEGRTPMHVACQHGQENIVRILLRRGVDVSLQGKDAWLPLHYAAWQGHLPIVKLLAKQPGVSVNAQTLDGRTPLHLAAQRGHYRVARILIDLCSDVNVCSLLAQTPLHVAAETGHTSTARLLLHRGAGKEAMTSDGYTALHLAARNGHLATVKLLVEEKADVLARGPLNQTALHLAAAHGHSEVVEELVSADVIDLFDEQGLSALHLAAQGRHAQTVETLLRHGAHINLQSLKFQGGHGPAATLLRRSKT

[5] = target: T1, Receptor-interacting serine/threonine-protein kinase 2; assay: Inhibition of RIPK2-mediated NF-kappaB signalling in C14-TriLAN-Gly-treated human THP-1 cells preincubated for 30 mins followed by C14-TriLAN-Gly addition measured after 24 hrs by luminescence based assay; assay type: cell-based
[6] = target: T1, Receptor-interacting serine/threonine-protein kinase 2; assay: Inhibition of RIPK2-mediated NF-kappaB signalling in MDP-treated human THP-1 cells preincubated for 30 mins followed by MDP addition measured after 24 hrs by luminescence based assay; assay type: cell-based
[7] = Metabolic stability in human liver microsomes assessed as compound remaining at 10 uM incubated for 45 mins by ECHO-MS analysis; assay type: ADME, Microsome; conditions: for remaining at 0.75 h, 10 µM: liver microsomes, read-out: Stability; for Stability: microsomes, 0.75 h, 10 µM
[8] = Metabolic stability in mouse liver microsomes assessed as compound remaining at 10 uM incubated for 45 mins by ECHO-MS analysis; assay type: ADME, Microsome; conditions: read-out: Stability
[9] = Metabolic stability in human plasma assessed as compound remaining at 5 uM incubated for 120 mins by ECHO-MS analysis; assay type: ADME, cell-free; conditions: for remaining at 2 h, 5 µM: read-out: Stability; for Stability: 2 h, 5 µM
[10] = Metabolic stability in mouse plasma assessed as compound remaining at 5 uM incubated for 120 mins by ECHO-MS analysis; assay type: ADME, cell-free; conditions: for remaining at 2 h, 5 µM: read-out: Stability
[11] = target: T2, Receptor-interacting serine/threonine-protein kinase 3; assay: Inhibition of N-terminal polyHis-tagged human RIPK3 (1 to 307 residues) expressed in Sf9 cells using MBP as substrate upto 10 uM preincubated for 15 mins followed by ATP addition measured after 90 mins by ADP-Glo assay; conditions: time 105.0 min
Target sequence in this assay (Q9Y572 whole entry, looked up, the tested form may be a part): as the sequence (Q9Y572 whole entry, the tested form may be a part) above

[12] = target: Vascular endothelial growth factor receptor 2 (Homo sapiens) (UniProt P35968); assay: Inhibition of human KDR relative to control; design: concentration or dose not given beside the values; conditions: concentration not given here
[13] = target: Epidermal growth factor receptor (Homo sapiens) (UniProt P00533); assay: Inhibition of human EGFR relative to control; conditions: concentration not given here
HT-29 = assay: Cytotoxicity against human HT-29 cells assessed as cell viability at 10 uM incubated for 24 hrs by Cell Titer Glo assay; assay type: toxicity, cell-based; conditions: ht-29, 24 h
[14] = target: Serine/threonine-protein kinase 10 (Homo sapiens) (UniProt O94804); assay: Inhibition of human LOK relative to control; conditions: concentration not given here
[15] = target: Tyrosine-protein kinase Fyn (Homo sapiens) (UniProt P06241); assay: Inhibition of human FYN relative to control; conditions: concentration not given here
[16] = target: MAP kinase-interacting serine/threonine-protein kinase 2 (Homo sapiens) (UniProt Q9HBH9); assay: Inhibition of human MNK2 relative to control; conditions: concentration not given here
[17] = target: Tyrosine-protein kinase Lyn (Homo sapiens) (UniProt P07948); assay: Inhibition of human LYN relative to control; conditions: concentration not given here
[18] = target: Tyrosine-protein kinase ABL1 (Homo sapiens) (UniProt P00519); assay: Inhibition of human ABL relative to control; conditions: concentration not given here
[19] = target: T1, Receptor-interacting serine/threonine-protein kinase 2; assay: Inhibition of RIPK2-mediated NF-kappaB signalling in C14-TriLAN-Gly-treated human THP-1 cells upto 10 uM preincubated for 30 mins followed by C14-TriLAN-Gly addition measured after 24 hrs by luminescence based assay; assay type: cell-based
[20] = target: T1, Receptor-interacting serine/threonine-protein kinase 2; assay: Inhibition of RIPK2-mediated NF-kappaB signalling in MDP-treated human THP-1 cells upto 10 uM preincubated for 30 mins followed by MDP addition measured after 24 hrs by luminescence based assay; assay type: cell-based

Sequence of Vascular endothelial growth factor receptor 2 (Homo sapiens) (P35968 whole entry): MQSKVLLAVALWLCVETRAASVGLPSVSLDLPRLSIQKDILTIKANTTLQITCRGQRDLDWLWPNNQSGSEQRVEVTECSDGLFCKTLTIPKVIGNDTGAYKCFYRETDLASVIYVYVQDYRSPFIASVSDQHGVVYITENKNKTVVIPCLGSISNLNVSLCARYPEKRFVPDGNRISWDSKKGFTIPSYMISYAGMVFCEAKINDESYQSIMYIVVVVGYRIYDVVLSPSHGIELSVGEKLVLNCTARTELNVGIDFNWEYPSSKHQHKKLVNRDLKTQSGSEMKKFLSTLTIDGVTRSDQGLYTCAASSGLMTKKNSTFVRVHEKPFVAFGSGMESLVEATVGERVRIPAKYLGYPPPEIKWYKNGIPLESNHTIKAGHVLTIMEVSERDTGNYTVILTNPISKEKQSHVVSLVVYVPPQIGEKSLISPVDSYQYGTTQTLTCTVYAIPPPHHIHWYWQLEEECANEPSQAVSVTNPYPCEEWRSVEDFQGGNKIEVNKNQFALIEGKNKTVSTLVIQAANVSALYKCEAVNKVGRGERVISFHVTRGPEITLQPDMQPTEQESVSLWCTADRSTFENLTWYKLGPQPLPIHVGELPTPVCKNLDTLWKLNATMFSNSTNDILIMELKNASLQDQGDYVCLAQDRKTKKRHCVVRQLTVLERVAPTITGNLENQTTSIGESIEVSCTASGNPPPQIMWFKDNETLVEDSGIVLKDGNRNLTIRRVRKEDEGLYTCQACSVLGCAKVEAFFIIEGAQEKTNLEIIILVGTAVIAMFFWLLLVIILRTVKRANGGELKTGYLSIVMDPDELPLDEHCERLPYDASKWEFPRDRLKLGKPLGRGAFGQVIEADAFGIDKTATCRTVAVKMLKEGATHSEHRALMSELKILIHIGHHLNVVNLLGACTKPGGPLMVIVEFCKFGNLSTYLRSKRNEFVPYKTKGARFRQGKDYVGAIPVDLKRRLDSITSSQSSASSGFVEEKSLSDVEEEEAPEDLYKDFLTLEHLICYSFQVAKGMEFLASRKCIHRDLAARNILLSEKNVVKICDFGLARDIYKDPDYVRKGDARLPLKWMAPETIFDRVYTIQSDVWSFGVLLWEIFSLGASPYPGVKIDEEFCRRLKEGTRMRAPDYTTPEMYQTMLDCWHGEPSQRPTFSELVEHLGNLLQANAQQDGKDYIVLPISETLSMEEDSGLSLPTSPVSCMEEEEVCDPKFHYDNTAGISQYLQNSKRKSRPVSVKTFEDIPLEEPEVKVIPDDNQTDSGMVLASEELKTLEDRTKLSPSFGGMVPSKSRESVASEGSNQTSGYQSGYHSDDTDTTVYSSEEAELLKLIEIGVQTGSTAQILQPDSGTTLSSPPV
Sequence of Epidermal growth factor receptor (Homo sapiens) (P00533 whole entry): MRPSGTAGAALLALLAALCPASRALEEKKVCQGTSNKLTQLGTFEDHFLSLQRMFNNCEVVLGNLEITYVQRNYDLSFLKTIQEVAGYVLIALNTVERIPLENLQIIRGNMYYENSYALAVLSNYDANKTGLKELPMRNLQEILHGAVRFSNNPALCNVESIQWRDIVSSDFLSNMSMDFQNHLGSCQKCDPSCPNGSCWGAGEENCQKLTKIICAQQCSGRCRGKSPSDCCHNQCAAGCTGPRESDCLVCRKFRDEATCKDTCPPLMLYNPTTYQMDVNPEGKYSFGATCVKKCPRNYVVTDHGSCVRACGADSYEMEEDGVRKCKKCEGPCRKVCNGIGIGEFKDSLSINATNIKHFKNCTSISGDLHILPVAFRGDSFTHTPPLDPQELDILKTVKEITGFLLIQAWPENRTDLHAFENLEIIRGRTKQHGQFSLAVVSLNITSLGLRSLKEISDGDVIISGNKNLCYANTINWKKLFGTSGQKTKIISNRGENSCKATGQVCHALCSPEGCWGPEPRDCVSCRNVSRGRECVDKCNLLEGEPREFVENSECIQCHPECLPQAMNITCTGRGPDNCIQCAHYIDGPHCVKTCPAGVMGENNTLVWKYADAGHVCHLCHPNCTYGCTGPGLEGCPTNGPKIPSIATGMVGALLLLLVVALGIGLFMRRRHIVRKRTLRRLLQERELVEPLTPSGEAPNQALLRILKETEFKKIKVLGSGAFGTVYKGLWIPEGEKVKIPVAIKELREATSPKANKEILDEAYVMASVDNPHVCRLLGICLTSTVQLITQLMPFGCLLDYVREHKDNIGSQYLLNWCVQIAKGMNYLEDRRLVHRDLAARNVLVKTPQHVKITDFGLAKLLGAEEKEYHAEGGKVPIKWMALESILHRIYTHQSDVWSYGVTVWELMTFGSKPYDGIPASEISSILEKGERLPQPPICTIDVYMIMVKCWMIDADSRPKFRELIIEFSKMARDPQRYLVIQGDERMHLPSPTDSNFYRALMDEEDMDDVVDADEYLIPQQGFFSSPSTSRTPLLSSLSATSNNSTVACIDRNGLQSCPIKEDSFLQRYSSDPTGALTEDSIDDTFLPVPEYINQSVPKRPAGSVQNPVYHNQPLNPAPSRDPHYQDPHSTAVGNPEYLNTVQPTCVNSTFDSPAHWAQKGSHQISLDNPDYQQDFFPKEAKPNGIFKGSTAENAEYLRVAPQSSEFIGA
T1 sequence (O43353 whole entry, the tested form may be a part): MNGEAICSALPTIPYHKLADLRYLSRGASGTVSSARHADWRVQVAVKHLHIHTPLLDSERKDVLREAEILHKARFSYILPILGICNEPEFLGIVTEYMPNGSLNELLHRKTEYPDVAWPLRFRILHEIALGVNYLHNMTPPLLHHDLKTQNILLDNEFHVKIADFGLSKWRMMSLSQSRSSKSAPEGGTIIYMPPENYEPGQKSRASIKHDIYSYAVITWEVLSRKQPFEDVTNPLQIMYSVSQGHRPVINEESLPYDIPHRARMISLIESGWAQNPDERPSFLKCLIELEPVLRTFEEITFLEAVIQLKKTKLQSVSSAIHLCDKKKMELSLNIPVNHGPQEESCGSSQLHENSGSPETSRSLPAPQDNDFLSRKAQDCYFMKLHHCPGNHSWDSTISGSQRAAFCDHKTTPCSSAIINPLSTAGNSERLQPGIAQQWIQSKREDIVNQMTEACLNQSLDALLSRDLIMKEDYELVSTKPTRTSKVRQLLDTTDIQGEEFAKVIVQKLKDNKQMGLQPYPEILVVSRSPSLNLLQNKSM
Sequence of Serine/threonine-protein kinase 10 (Homo sapiens) (O94804 whole entry, looked up): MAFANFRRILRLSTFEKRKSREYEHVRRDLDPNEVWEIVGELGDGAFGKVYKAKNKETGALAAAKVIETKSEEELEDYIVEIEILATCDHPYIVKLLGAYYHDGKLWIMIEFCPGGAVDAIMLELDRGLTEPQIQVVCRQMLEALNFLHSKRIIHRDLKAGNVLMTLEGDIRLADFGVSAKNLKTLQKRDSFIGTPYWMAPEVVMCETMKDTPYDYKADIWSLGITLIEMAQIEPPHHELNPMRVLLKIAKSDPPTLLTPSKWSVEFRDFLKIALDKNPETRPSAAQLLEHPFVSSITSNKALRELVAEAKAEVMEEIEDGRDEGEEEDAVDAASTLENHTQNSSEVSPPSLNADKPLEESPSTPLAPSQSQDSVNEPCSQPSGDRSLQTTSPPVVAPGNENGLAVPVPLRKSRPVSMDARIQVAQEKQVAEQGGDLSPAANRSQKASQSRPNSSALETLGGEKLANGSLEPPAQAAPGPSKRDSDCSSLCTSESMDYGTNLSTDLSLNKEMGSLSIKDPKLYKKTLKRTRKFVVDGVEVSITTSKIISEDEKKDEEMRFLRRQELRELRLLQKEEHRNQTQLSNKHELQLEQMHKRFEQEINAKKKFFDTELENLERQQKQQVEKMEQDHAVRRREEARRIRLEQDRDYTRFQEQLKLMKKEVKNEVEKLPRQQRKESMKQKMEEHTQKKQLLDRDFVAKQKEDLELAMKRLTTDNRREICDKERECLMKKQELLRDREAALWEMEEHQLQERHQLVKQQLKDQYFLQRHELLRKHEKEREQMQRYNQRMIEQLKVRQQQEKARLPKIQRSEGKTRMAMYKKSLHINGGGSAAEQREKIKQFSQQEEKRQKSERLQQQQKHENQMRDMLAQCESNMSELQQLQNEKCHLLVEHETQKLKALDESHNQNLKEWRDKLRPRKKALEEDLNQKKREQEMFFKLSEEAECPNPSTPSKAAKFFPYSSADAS
Sequence of MAP kinase-interacting serine/threonine-protein kinase 2 (Homo sapiens) (Q9HBH9 whole entry, looked up): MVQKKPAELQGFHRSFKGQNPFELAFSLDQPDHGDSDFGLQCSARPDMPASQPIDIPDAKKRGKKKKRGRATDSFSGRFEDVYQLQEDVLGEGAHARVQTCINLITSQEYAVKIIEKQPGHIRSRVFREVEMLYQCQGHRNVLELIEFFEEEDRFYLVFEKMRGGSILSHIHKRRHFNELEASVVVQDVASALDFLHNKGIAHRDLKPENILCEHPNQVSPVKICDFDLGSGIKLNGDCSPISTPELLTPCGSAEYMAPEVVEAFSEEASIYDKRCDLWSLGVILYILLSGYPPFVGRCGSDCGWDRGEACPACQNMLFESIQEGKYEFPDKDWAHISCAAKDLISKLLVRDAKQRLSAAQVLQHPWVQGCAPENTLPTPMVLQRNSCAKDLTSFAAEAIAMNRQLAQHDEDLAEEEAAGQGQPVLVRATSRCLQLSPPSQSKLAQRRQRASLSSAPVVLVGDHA

Row | Compound | IC50 [1] | IC50 [2] | IC50 [3] | IC50 [4] | IC50 [5] | IC50 [6] | remaining at 0.75 h, 10 µM [7] | remaining at 0.75 h, 10 µM [8] | remaining at 2 h, 5 µM [9] | remaining at 2 h, 5 µM [10] | inhibition [11] | Stability [9] | inhibition [12] | inhibition [13] | Stability [7] | also measured
1 | C1=C(c2cc3ncnc(Nc4ccc5scnc5c4)c3cc2-c2cccs2)COC1 | 5 nM | 464 nM | > 50000 nM | > 50000 nM | 51 nM | 36 nM | 108% | 94% | 107% | 111% |  |  |  |  |  | 
2 | Cn1cncc1-c1ccc2ncnc(Nc3ccc4scnc4c3)c2c1 | 4 nM |  | > 50000 nM | > 50000 nM | 119 nM | 115 nM | 108% | 118% |  | 79% | inactive | 121% | 66% | 68% |  | 
3 | Cn1cncc1-c1cc2c(Nc3ccc4scnc4c3)ncnc2cc1Cl | 7 nM |  | > 50000 nM | > 50000 nM | 146 nM | 54 nM | 94% | 105% |  | 102% | inactive | 122% |  |  |  | 
4 | Cn1cccc1-c1cc2c(Nc3ccc4scnc4c3)ncnc2cc1-c1cccc(CO)c1 | 5 nM | 141 nM | > 50000 nM | > 50000 nM | 119 nM | 95 nM |  | 93% | 112% | 119% |  |  | 74% |  | 124% | Activity (HT-29): Toxic
5 | c1csc(-c2ccc3ncnc(Nc4ccc5scnc5c4)c3c2)c1 | 4 nM | 398 nM | > 50000 nM | > 50000 nM | 106 nM | 120 nM |  |  |  |  |  |  | 69% | 54% |  | inhibition [14]: 50%; inhibition [15]: 71%; inhibition [16]: 54%
6 | OCc1ccc(-c2cc3ncnc(Nc4ccc5scnc5c4)c3cc2-c2cccs2)o1 | 3 nM | 117 nM | > 50000 nM | > 50000 nM | 14 nM | 27 nM |  | 114% | 108% | 107% |  |  | 94% | 79% | 124% | inhibition [14]: 83%; inhibition [15]: 94%; inhibition [17]: 94%; inhibition [18]: 70%
7 | Cc1ccsc1-c1cc2c(Nc3ccc4scnc4c3)ncnc2cc1-c1cccc(CO)c1 | 4 nM | 122 nM | > 50000 nM | > 50000 nM | 225 nM | 229 nM |  | 118% | 113% | 108% |  |  | 85% |  | 123% | Activity (HT-29): Toxic
8 | CC(C)[N+](C)(CCOC(=O)C1c2ccccc2Oc2ccccc21)C(C)C [PROPANTHELINE] |  |  |  |  |  |  |  |  | 2% | 11% |  |  |  |  |  | 
9 | Cc1ccsc1-c1cc2c(Nc3ccc4scnc4c3)ncnc2cc1Cl | 52 nM |  | > 50000 nM | > 50000 nM |  |  |  |  |  |  | inactive |  |  |  |  | IC50 [19]: Not Active; IC50 [20]: Not Active
10 | Cn1ccnc1-c1cc2c(Nc3ccc4scnc4c3)ncnc2cc1Cl | 3 nM |  | > 50000 nM | > 50000 nM | 183 nM | 58 nM | 105% | 115% |  |  | inactive | 141% |  |  |  | Stability ([10]; 2 h, 5 µM): 135%
